Data published in ChEMBL document CHEMBL1143646, “Synthesis and HIV-1 integrase inhibitory activities of caffeic acid dimers derived from Salvia officinalis” (Bioorg Med Chem Lett, 2005).

Assays:
[1] = Antiviral activity against HIV-1 1 early replicative steps in HeLa-bgal- CD4+ (P4) reporter cells; assay type: functional; conditions: Human immunodeficiency virus 1
[2] = target: Human immunodeficiency virus type 1 integrase (Human immunodeficiency virus 1, UniProt Q7ZJM1); test: Inhibitory concentration against HIV-1 integrase
Sequence of Human immunodeficiency virus type 1 integrase (Q7ZJM1 whole entry): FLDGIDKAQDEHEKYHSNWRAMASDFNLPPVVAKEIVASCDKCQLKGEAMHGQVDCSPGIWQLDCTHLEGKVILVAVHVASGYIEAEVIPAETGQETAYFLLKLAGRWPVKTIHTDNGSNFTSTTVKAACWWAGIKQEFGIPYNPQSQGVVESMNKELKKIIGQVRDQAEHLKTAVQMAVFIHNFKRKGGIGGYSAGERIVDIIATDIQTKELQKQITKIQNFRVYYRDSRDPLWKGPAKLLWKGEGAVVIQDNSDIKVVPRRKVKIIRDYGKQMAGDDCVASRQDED

**Q.** Which EC50 [1] does the source give for `O=C(O)/C=C/c1ccc(O)c(Oc2cc3cc(O)c(O)cc3oc2=O)c1` here?
**A.** 31 µM

**Q.** What about the IC50 [2] of the same compound?
**A.** 1000 nM

**Q.** For `O=C(O)/C=C/c1ccc(Oc2cc3cc(O)c(O)cc3oc2=O)c(O)c1`, which EC50 [1] is on record?
**A.** 37 µM

**Q.** What about the IC50 [2] of the same compound?
**A.** 2000 nM

**Q.** For `O=c1oc2cc(O)c(O)cc2cc1O`, which EC50 [1] is on record?
**A.** 12 µM

**Q.** And the IC50 [2]?
**A.** 2000 nM
